Data on 25 molecules can be found in patent publication US20250074901A1, “NOVEL HETEROARYL COMPOUNDS” (ICAGEN, LLC, priority 2021, published 2025).

For the test, the target named is T1, Kv7.2 (Homo sapiens, UniProt O43526).
T1 construct: expressed in transfected cells
The test is described as follows: Activation of Kv7.2 (in vitro assay, concentration response curve). Format: cell-based. To be noted: for Emax: Kv7.2 activation max %; for EC50: activation of Kv7.2. As to the method: The term “EC50” in this application is defined as: the agonistic effect of a compound can be determined by testing the compound in an in vitro assay as described herein, whereby the effect of the compound is measured across a range of compound concentrations. The resulting data is plotted as a concentration response curve, which typically follows a sigmoidal function, whereby the concentration of the compound is plotted on the x axis and the response (agonistic effect) is plotted on the y axis. The term “EC50” is the “half maximal effective concentration” and denotes the concentration of a particular compound required to obtain 50% of the maximum response (Emax) which is observed for that compound in the given in vitro assay.

Take `O=C(NCc1ccnc(OC(F)F)c1)N[C@@H]1[C@H]2CCC(F)(F)[C@H]21` (racemic) [Example 172, 1-[[2-(difluoromethoxy)pyridin-4-yl]methyl]-3-[rac-(1R,5S,6R)-2,2-difluoro-6-bicyclo[3.1.0]hexanyl]urea]: the Emax was found to be 66% and the EC50 turned out to be 460 nM.
The corresponding values for `O=C(NCc1ccnc(OCF)c1)N[C@@H]1[C@H]2CCC(F)(F)[C@H]21` (racemic) [Example 176, 1-[[2-(fluoromethoxy)pyridin-4-yl]methyl]-3-[rac-(1R,5S,6R)-2,2-difluoro-6-bicyclo[3.1.0]hexanyl]urea] are 62% and 890 nM.
In the same order, the values of `O=C(NCc1ccnc(OC(F)F)c1)N[C@H]1CC[C@](O)(C(F)(F)F)C1` (racemic) [Example 187, 1-[[2-(difluoromethoxy)pyridin-4-yl]methyl]-3-[rac-(1R,3S)-3-hydroxy-3-(trifluoromethyl)cyclopentyl]urea] are 40% and 1140 nM.
Turning to `O=C(NCc1ccnc(OC(F)F)c1)N[C@@H]1CC[C@H](C(F)F)C1` (racemic) [Example 193, 1-[[2-(difluoromethoxy)pyridin-4-yl]methyl]-3-[rac-(1R,3S)-3-(difluoromethyl)cyclopentyl]urea], the Emax is 48% and the EC50 amounted to 220 nM.
In the same order, the values of `O=C(NCc1ccnc(OC(F)F)c1)NC1CC[C@@H]2CC[C@H]12` (mixture of isomers) [Example 196, 1-[[2-(difluoromethoxy)pyridin-4-yl]methyl]-3-[rac-(1R,5R)-2-bicyclo[3.2.0]heptanyl]urea] are 75% and 70 nM.
Molecule `O=C(NCc1ccnc(OC(F)F)c1)NC1C2CCC1CC(F)(F)C2` (racemic) [Example 197, 1-[[2-(difluoromethoxy)pyridin-4-yl]methyl]-3-[rac-(1R,5S)-3,3-difluoro-8-bicyclo[3.2.1]octanyl]urea] yielded an Emax of 54% and an EC50 of 500 nM.
In the same order, the values of `O=C(NCc1ccnc(OCC(F)CF)c1)N[C@H]1CC[C@@H](C(F)(F)F)C1` (mixture of isomers) [Example 225, 1-[[2-(2,3-difluoropropoxy)pyridin-4-yl]methyl]-3-[rac-(1R,3S)-3-(trifluoromethyl)cyclopentyl]urea] are 52% and 310 nM.
The molecule `O=C(NCc1ccnc(OC(F)F)c1)NC1C[C@@H](F)[C@@H](F)C1` (mixture of isomers) [Example 234, 1-[[2-(difluoromethoxy)pyridin-4-yl]methyl]-3-[rac-(3R,4S)-3,4-difluorocyclopentyl]urea] gave an Emax of 56% and an EC50 of 4270 nM.
`O=C(NCc1ccnc(OC(F)F)c1)N[C@@H]1C[C@H]2C[C@@H]1C(F)(F)C2` (racemic) [Example 236, 1-[[2-(difluoromethoxy)pyridin-4-yl]methyl]-3-[rac-(1R,2S,4S)-6,6-difluoro-2-bicyclo[2.2.1]heptanyl]urea] displayed an Emax of 87% and an EC50 of 460 nM.
As to `O=C(NCc1ccnc(OC(F)F)c1)N[C@@H]1CC[C@@H]1C(F)(F)F` (racemic) [Example 255, 1-[[2-(difluoromethoxy)pyridin-4-yl]methyl]-3-[rac-(1R,2S)-2-(trifluoromethyl)cyclobutyl]urea], the Emax came out at 78% and the EC50 amounted to 2570 nM.
Regarding `O=C(NCc1ccnc(CC(F)(F)F)c1)N[C@H]1CCC[C@@H](C(F)(F)F)C1` (racemic) [Example 276, 1-[rac-(1R,3S)-3-(trifluoromethyl)cyclohexyl]-3-[[2-(2,2,2-trifluoroethyl)pyridin-4-yl]methyl]urea], the Emax was 62% and it took 540 nM to reach a half-maximal effect (EC50).
In the same order, the values of `O=C(NCc1ccnc(OC(F)F)c1)N[C@@H]1CC[C@@H](C(F)(F)F)C1` (single isomer, unassigned) [Example 206] are 75% and 490 nM.
The molecule `O=C(NCc1ccnc(OC(F)F)c1)N[C@H]1CC[C@H](C(F)(F)F)C1` (single isomer, unassigned) [Example 207] returned an Emax of 58% and an EC50 of 230 nM.
`O=C(Nc1cccc(Cl)c1)NC(CO)c1ccnc(OC(F)F)c1` (single isomer, unassigned) [Example 263] displayed an Emax of 73% and a concentration for a half-maximal effect (EC50) of 310 nM.
The corresponding values for `O=C(NC(CO)c1ccnc(OC(F)F)c1)N[C@@H]1COc2ccccc2C1` (stereo in doubt) [Example 278, rel-1-[1-[2-(difluoromethoxy)pyridin-4-yl]-2-hydroxyethyl]-3-[(3S)-3,4-dihydro-2H-chromen-3-yl]urea] are 52% and 430 nM.
The molecule `O=C(NCc1ccnc(-n2cccn2)c1)N[C@@H]1CCOc2ccccc21` [Example 1, 1-[(4R)-3,4-dihydro-2H-chromen-4-yl]-3-[(2-pyrazol-1-ylpyridin-4-yl)methyl]urea] showed an Emax of 54% and an EC50 of 2420 nM.
Consider `O=C(NCc1ccnc(-n2cccn2)c1)NC1CCCC1` [Example 2, 1-cyclopentyl-3-[(2-pyrazol-1-ylpyridin-4-yl)methyl]urea], for which the Emax stood at 74% and the EC50 was determined as 4400 nM.
The corresponding values for `O=C(NCc1ccnc(-n2cccn2)c1)Nc1cccc(Cl)c1` [Example 4, 1-(3-chlorophenyl)-3-[(2-pyrazol-1-ylpyridin-4-yl)methyl]urea] are 60% and 430 nM.
In the same order, the values of `CC1CC(C)(C)CCC1NC(=O)NCc1ccnc(C#N)c1` (centres unmarked) [Example 5, 1-[(2-cyanopyridin-4-yl)methyl]-3-(2,4,4-trimethylcyclohexyl)urea] are 60% and 3690 nM.
The corresponding values for `O=C(NCc1ccnc(-n2cccn2)c1)NC12CC(C(F)(F)F)(C1)C2` [Example 6, 1-[(2-pyrazol-1-ylpyridin-4-yl)methyl]-3-[3-(trifluoromethyl)-1-bicyclo[1.1.1]pentanyl]urea] are 58% and 1140 nM.
On to `O=C(NCc1ccnc(-n2ccnc2)c1)NC1CCCC(C2CC2)C1` (centres unmarked) [Example 8, 1-(3-cyclopropylcyclohexyl)-3-[(2-imidazol-1-ylpyridin-4-yl)methyl]urea], for which the maximal response (Emax) was found to be 52% and the EC50 stood at 1520 nM.
In the same order, the values of `CC1CC(C)(C)CCC1NC(=O)NCc1ccnc(-n2ccnc2)c1` (centres unmarked) [Example 9, 1-[(2-imidazol-1-ylpyridin-4-yl)methyl]-3-(2,4,4-trimethylcyclohexyl)urea] are 53% and 700 nM.
`O=C(NCCC1=CCCCC1)NCc1ccnc(-n2cccn2)c1` [Example 10, 1-[2-(cyclohexen-1-yl)ethyl]-3-[(2-pyrazol-1-ylpyridin-4-yl)methyl]urea] returned an Emax of 54% and an EC50 of 1390 nM.
In the same order, the values of `O=C(NCc1ccnc(OC(F)F)c1)NCC1CCC1` [Example 13, 1-(cyclobutylmethyl)-3-[[2-(difluoromethoxy)pyridin-4-yl]methyl]urea] are 56% and 330 nM.
As for `O=C(NCc1ccnc(-n2cccn2)c1)N[C@H]1C[C@@H]2CC[C@H]1C2` [Example 15, 1-[(1S,2S,4R)-2-bicyclo[2.2.1]heptanyl]-3-[(2-pyrazol-1-ylpyridin-4-yl)methyl]urea], the Emax was determined as 78% and the half-maximal effective concentration (EC50) was 380 nM.

The term Emax denotes the size of the effect at its maximum, as opposed to the concentration needed. Broadly, the EC50 is the concentration at which the effect is half-maximal.
